Experimental data published in patent US20210254101A1, “METHODS FOR TREATING SPINAL CORD INJURY” (THE CHILDREN'S MEDICAL CENTER CORPORATION, priority 2018, published 2021).

Key:
[1] = test system: mice with staggered lesions; experiment: Basso Mouse Scale (BMS) open field locomotion after staggered T7/T10 lateral hemisections; assay type: in vivo
Protocol: A staggered lesion paradigm was optimized in which two lateral hemisections were performed at the thoracic (T) 7 and T10 levels simultaneously (FIGS. 1A and 1B), similar to the model previously described (Courtine 2008; van den Brand, 2012). The T10 lesion is a lateral hemisection that ends at the spinal cord midline, while the T7 lesion, contralateral to the T10 lesion, extends slightly beyond the midline (FIG. 1A). With this double hemisection procedure, all descending axons passing T10 are severed, leaving only those crossing the midline between T7 and T10 intact (FIG. 1C). Indeed, by immunohistochemistry with anti-5-HT antibodies, which label serotonergic axons, descending serotonergic axons could be detected in the spinal cord segments between the lesions, but not in the lumbar spinal cord (FIG. 1C). Thus, a relay zone remains between and around the lesions (T7 and T10) where descending axons terminate, and where some propriospinal neurons maintain their connections with lumbar spinal neurons (see herein below).
This double hemisection SCI model was used to seek small molecule compounds that could reactivate the spared, but dormant, spinal connections by monitoring hindlimb motor performance during over-ground locomotion. To this end, daily compound treatment was started 1 week after injury and then monitored the BMS scores approximately 24 hours after the previous day's compound treatment on a weekly basis (FIG. 1D). Behavioral outcomes observed at these time points likely reflect sustained effects of the treatment, which are more clinically relevant.
Surgical Procedures. The procedure of T7 and T10 double lateral hemisection was similar to that described elsewhere (Courtine et al., 2008; van den Brand et al., 2012). Briefly, a midline incision was made over the thoracic vertebrae, followed by a T7-10 laminectomy. For the T7 right side over-hemisection, a scalpel and micro-scissors were carefully used to interrupt the bilateral dorsal column at T7, and ensured no sparing of ventral pathways on the contralateral side (FIG. 1A). For the T10 left hemisection, a scalpel and micro-scissors were carefully used to interrupt only the left side of the spinal cord until the midline. The muscle layers were then sutured, and the skin was secured with wound clips. All animals received post hoc histological analysis, and those with spared 5HT axons at the lumbar spinal cord (L2-5) were excluded for behavioral analysis (FIG. 7).
Behavioral Experiments. Motor function was evaluated with a locomotor open field rating scale on the Basso Mouse Scale (BMS). For transient pharmacological treatments, ten to fifteen minutes (van den Brand et al., 2012) prior to behavioral tests (grounding walking, all of which were performed individually), mice received systematic administration (i.p.) of the neural modulators listed above. It is important to note that with a single intraperitoneal injection, plasma CNO levels peak at 15 min and become very low by 2 h after injection (Guettier et al., 2009). For chronic pharmacological treatments, 24 hours prior to behavioral tests, mice received systematic administration of the compounds listed above. All behavioral tests were completed within 1-3 hours. For detailed hindlimb kinematic analysis, mice from different groups were placed in the MotoRater (TSE Systems, (Zorner et al., 2010)), and all kinematic analysis was performed based on data collected by the MotoRater.

c-Fos = c-Fos immunoreactivity in spinal cord segments between T7 and T10 after 1 hour walking; assay type: in vivo, mouse
Text: In mature neurons, GABA and glycine are inhibitory because they open chloride channels, which allow chloride ion influx leading to hyperpolarization. In contrast, during development, the elevated intracellular chloride levels render GABAA- and glycine-mediated currents depolarizing and generally excitatory. During early postnatal life, KCC2 upregulation in postnatal neurons is crucial for reducing intracellular chloride concentrations, transforming excitation into inhibition (Ben-Ari et al., 2012; Kaila et al., 2014). Thus, injury-induced KCC2 down-regulation (Boulenguez et al., 2010; Cote et al., 2014) would be expected to restore an immature state in which GABA and glycine receptors can depolarize neurons. In this scenario, KCC2 activation in spinal inhibitory neurons would transform local circuits in the relay zone towards a more physiological state, which is more receptive to descending inputs. To examine this, c-Fos immunoreactivity was used as a proxy of neuronal activity in the spinal cord segments between T7 and T10 at 8 weeks after injury, and after walking on a treadmill for 1 hour. In each group, the majority of c-Fos-positive cells in these spinal segments were also positively stained with NeuN, a neuronal marker (FIG. 11A, 11B). In injured mice without treatment, the c-Fos-positive neurons were concentrated in the dorsal horn of the spinal cord (FIG. 5A-5C), perhaps reflecting hypersensitivity to peripheral sensory inputs in these injured mice. […] This KCC2-transformed distribution pattern is similar to what was detected in intact mice, in response to walking (FIG. 5A-5C).
Immunohistochemistry and Imaging. The paraformaldehyde (PFA) fixed tissues were cryo-protected with 30% sucrose and processed using cryostat (section thickness 40 μm for spinal cord). Sections were treated with a blocking solution containing 10% normal donkey serum with 0.5% Triton-100 for 2 hours at room temperature before staining. The primary antibodies (4 □, overnight) used were: rabbit anti-GFAP [DAKO (Z0334), 1:600]; rabbit anti-5-HT [Immunostar (20080), 1:5,000]; chicken anti-GFP [Abcam (ab13970), 1:400]; rabbit anti-RFP [Abcam (ab34771), 1:400]; rabbit anti-PKCγ [Santa Cruz (sc211), 1:100]; rat anti-HA [Sigma (11867423001), 1:200]; rabbit anti-c-Fos [Cell signaling (2250s), 1:100]; and mouse anti-NeuN [Millipore (MAB377), 1:400]. Secondary antibodies (room temperature, 2 h) included: Alexa Fluor 488-conjugated donkey anti chicken and rabbit; and Alexa Fluor 594-conjugated donkey anti rabbit (all from Invitrogen). c-Fos immunoreactivity of spinal neurons was determined as previously described (Courtine et al., 2009), after 1-hour of continuous quadrupedal free walking (intact), stepping (CLP290 or AAV-KCC2 treated mice) or dragging (vehicle or AAV-GFP treated mice). The mice were returned to their cages, and were then anesthetized and sacrificed by intracardial perfusion of 4% PFA (wt/vol) in phosphate buffered saline (PBS) about 2 hours later.

[2] = Side effects of compounds tested in the study; assay type: in vivo, mouse; settings: even at high doses; data not shown
[3] = T8/9, 8 weeks after injury, chronic treatment, FIG. 5A-5C

O=C1N=C(N2CCCCN2)S/C1=C\c1ccc(F)cc1OC(=O)N1CCCC1 [CLP290, [5-Fluoro-2-[(Z)-(2-hexahydropyridazin-1-yl-4-oxo-thiazol-5-ylidene)methyl]phenyl] pyrrolidine-1-carboxylate]
mice that recovered consistent hindpaw plantar placement and weight-bearing stepping ([1]; 9 weeks post staggered injury, FIG. 1F): 80%
additional functional recovery (BMS) from accompanying CLP290 treatment ([1]; Vgat-Cre mice with AAV-FLEX-KCC2, CLP290 versus vehicle, FIG. 10E): did not significantly enhance functional recovery at most time points
time BMS scores remained significantly higher than controls after stopping treatment ([1]; after withdrawal following 10-week treatment, FIG. 1G): 1-2 weeks
stepping ability / functional recovery (BMS), chronic compound treatment ([1]; daily i.p. treatment from 1 week after injury, BMS about 24 h after previous dose, FIG. 1E, 7A): induced sustained functional recovery
time at which functional recovery (BMS) first appeared ([1]; daily i.p. treatment started 1 week after injury, BMS about 24 h after previous dose, FIG. 1E): 4-5 weeks
time from which functional recovery (BMS) became significant ([1]; weeks after treatment, daily i.p. treatment, BMS about 24 h after previous dose, FIG. 1E): 7 weeks
c-Fos pattern after withdrawal of treatment (c-Fos; 2 weeks after withdrawal, FIGS. 11C and 11D): returned to what seen without treatment
c-Fos-positive neurons in the dorsal horn (laminae I-V) (c-Fos; [3]): a reduction in the dorsal horn
c-Fos-positive neurons in the intermediate/ventral spinal cord (c-Fos; [3]): a significant increase in the intermediate/ventral spinal cord
side effects [2]: negligible side effects even at high doses
